Where a SMILES comes first, the peptide text is derived from it. Where no end group is shown, it is not given here.
Tests used:
GPIb [1] = target: T1, GPIb (Homo sapiens, UniProt P07359); experiment: Inhibition of ristocetin-induced binding of 125I-vWF to formalin-fixed platelets by peptides; conditions: formalin-fixed platelets 1 x 10¹¹/liter, 125I-vWF 5 micrograms/ml, ristocetin 1.0 mg/ml, 30 minutes room temperature; read-out: IC₅₀ (concentration of peptide which inhibited binding by 50%)
T1 construct: endogenous in cells; host or cells: fresh or formalin-fixed platelets
Experimental: To test the inhibition of ristocetin-induced binding of vWF to platelets by peptides, formalin-fixed platelets were used at a final concentration of 1 x 10¹¹/liter. Peptides to be tested were then added at various concentrations. One third final volume of vWF deficient plasma was then added followed by ¹²⁵I-vWF a final concentration of 5 micrograms/ml. Ristocetin was then added at a concentration of 1.0 mg/ml. After incubation for 30 minutes at room temperature bound and free ligand were separated by centrifuging 50 microliters of the mixture through 300 microliters of 20% sucrose at 12,000 x g for 4 minutes. The platelet pellet was then separated from the rest of the mixture to determine platelet-bound radioactivity. Nonspecific binding was defined as the residual binding of ¹²⁵I-vWF in the presence of a 50-fold excess of unlabeled vWF but in the absence of any peptides.
(§1) Percent inhibition with a given peptide was calculated by dividing the specific cpm in the absence of peptide. The IC₅₀'s (concentration of peptide which inhibited binding by 50%) for the peptides tested were as follows: […]

GPIb [2] = target: T1, GPIb; experiment: Inhibition of 125I-asialo-vWF binding to fresh platelets by peptides
Experimental: To test the inhibitions of asialo-vWF binding to platelets, fresh platelets were used. These were prepared by drawing blood into 11 millimolar trisodium citrate and 2 millimolar EDTA. Platelet-rich plasma was then prepared by differential centrifugation. The platelet count was then adjusted to 1 x 10¹¹/liter. Peptides were then added to various concentrations and ¹²⁵I-asialo-vWF was then added at a final concentration of 5 micrograms/ml. After incubation for 30 minutes at room temperature bound and free ligand were separated by centrifuging 50 microliters of the mixture through 300 microliters of 20% sucrose at 12,000 x g for 4 minutes. The platelet pellet was then separated from the rest of the mixture to determine platelet-bound radioactivity. Non-specific binding was defined as the residual binding of ¹²⁵I-asialo-vWF in the presence of a 50-fold excess of unlabeled vWF but in the absence of any peptides.
as §1, with “dividing the specific cpm obtained when various concentrations of peptide were added by” for “dividing”

[3] = fresh platelets 1 x 10¹¹/liter, 125I-asialo-vWF 5 micrograms/ml, 30 minutes room temperature, read-out: IC₅₀ (concentration of peptide which inhibited binding by 50%)

T1 sequence (P07359 17-652): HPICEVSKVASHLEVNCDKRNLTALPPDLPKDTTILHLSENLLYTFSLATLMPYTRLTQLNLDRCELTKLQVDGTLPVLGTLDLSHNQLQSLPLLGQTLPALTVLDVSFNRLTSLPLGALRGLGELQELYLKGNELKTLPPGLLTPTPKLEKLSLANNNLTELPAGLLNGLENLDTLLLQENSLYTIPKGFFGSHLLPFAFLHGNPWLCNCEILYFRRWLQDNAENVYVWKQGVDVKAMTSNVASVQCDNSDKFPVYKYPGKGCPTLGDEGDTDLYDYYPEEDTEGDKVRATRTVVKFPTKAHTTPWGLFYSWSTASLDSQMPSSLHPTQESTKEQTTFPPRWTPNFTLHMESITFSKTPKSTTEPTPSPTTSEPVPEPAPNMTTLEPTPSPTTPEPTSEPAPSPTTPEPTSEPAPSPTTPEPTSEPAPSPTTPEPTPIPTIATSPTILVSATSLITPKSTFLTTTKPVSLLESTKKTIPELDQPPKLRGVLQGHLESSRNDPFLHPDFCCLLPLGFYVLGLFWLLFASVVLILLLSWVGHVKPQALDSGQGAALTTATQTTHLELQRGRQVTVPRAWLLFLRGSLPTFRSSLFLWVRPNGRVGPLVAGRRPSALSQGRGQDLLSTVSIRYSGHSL
T1 sequence (P13224 26-206 partner): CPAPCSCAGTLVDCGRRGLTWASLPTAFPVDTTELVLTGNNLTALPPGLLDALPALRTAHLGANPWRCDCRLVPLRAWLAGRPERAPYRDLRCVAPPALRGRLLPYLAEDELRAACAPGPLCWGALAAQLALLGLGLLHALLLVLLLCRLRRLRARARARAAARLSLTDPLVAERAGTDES
T1 sequence (P14770 17-177 partner): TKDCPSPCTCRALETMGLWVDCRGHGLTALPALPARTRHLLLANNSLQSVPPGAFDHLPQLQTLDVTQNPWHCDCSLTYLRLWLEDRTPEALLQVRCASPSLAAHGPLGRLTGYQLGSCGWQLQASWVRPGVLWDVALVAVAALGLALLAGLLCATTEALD

Compound	IC50 (GPIb [1]) [µM]	IC50 (GPIb [2]; [3]) [µM]	IC50 (GPIb [2]) [µM]
N=C(N)NCCC[C@H](NC(=O)[C@H](CCCCN)NC(=O)[C@H](CCCNC(=N)N)NC(=O)[C@@H](N)CCCCN)C(=O)O [(KR)₂] (H-KRKR-OH)	200	–	–
KRKRKR [(KR)₃]	120	23	–
KRKRKRKRGDV [(KR)₄GDV]	16	15	–
RRRRRRRRGDV [(R)₈GDV]	6	–	3.5
YRGDV [YRGDV, reference compound]	> 600	–	–
